Measurements reported in PubChem BioAssay (NCI).
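Exposure lasted 48 hours, with cells grown in 96-well plates and compounds tested at five concentrations. TGI marks complete inhibition of growth.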

Tests used:
Assay in all cases: NCI-60 cell line screen, 48 h
[1] = test system: 786-0 renal
[2] = test system: A498 renal
[3] = test system: A549 NSCLC
[4] = test system: ACHN renal
[5] = test system: CAKI-1 renal
[6] = test system: CCRF-CEM leukemia
[7] = test system: COLO 205 colon
[8] = test system: DLD-1 colon
[9] = test system: DMS 114 small cell lung
[10] = test system: DMS 273 small cell lung
[11] = test system: EKVX NSCLC
[12] = test system: HCC-2998 colon
[13] = test system: HCT-116 colon
[14] = test system: HCT-15 colon
[15] = test system: HL-60(TB) leukemia
[16] = test system: HOP-18 NSCLC
[17] = test system: HOP-62 NSCLC
[18] = test system: HOP-92 NSCLC
[19] = test system: HT29 colon
[20] = test system: IGROV1 ovarian
[21] = test system: K-562 leukemia
[22] = test system: KM12 colon
[23] = test system: KM20L2 colon
[24] = test system: LOX IMVI melanoma
[25] = test system: LXFL 529 NSCLC
[26] = test system: M14 melanoma
[27] = test system: M19-MEL melanoma
[28] = test system: MALME-3M melanoma
[29] = test system: MOLT-4 leukemia
[30] = test system: NCI-H226 lung
[31] = test system: NCI-H23 lung
[32] = test system: NCI-H460 lung
[33] = test system: NCI-H522 lung
[34] = test system: OVCAR-3 ovarian
[35] = test system: OVCAR-4 ovarian
[36] = test system: OVCAR-5 ovarian
[37] = test system: OVCAR-8 ovarian
[38] = test system: RPMI-8226 leukemia
[39] = test system: RXF-631 renal
[40] = test system: SF-268 CNS
[41] = test system: SF-295 CNS
[42] = test system: SF-539 CNS
[43] = test system: SK-MEL-2 melanoma
[44] = test system: SK-MEL-28 melanoma
[45] = test system: SK-MEL-5 melanoma
[46] = test system: SK-OV-3 ovarian
[47] = test system: SN12C renal
[48] = test system: SNB-19 CNS
[49] = test system: SNB-75 CNS
[50] = test system: SNB-78 CNS
[51] = test system: SR leukemia
[52] = test system: SW-620 colon
[53] = test system: TK-10 renal
[54] = test system: U251 CNS
[55] = test system: UACC-257 melanoma
[56] = test system: UACC-62 melanoma
[57] = test system: UO-31 renal
[58] = test system: XF 498 CNS
[59] = test system: RXF 393 renal

Measured: TGI

CN(C)CCCN1N=Nc2cccc3cccc1c23
> 87 µM: [25]
51.4 µM: [51]
> 70.2 µM: [7]
> 95.3 µM: [27]
> 89.1 µM: [32]
39.8 µM: [10]
> 65.1 µM: [21]
> 54.4 µM: [52]
> 64.6 µM: [13]
> 77.3 µM: [29]
58 µM: [35]
> 63.6 µM: [26]
> 63.1 µM: [15]
> 100 µM: [2] | [3] | [4] | [5] | [8] | [11] | [12] | [16] | [17] | [18] | [19] | [20] | [22] | [23] | [24] | [28] | [30] | [31] | [33] | [34] | [36] | [37] | [39] | [40] | [41] | [42] | [43] | [44] | [45] | [46] | [47] | [48] | [49] | [50] | [53] | [54] | [55] | [56] | [57] | [58]
38.2 µM: [1]
> 69.3 µM: [38]
> 63.4 µM: [6]
> 57.5 µM: [14]
> 57.9 µM: [9]

OCn1nc2c(C3OCCO3)cc3ccccc3n2c1=S
> 100 µM: [1] | [2] | [3] | [4] | [5] | [6] | [7] | [8] | [9] | [10] | [11] | [13] | [14] | [15] | [16] | [17] | [18] | [19] | [20] | [21] | [22] | [23] | [24] | [25] | [26] | [27] | [28] | [29] | [30] | [31] | [32] | [33] | [34] | [35] | [36] | [37] | [38] | [59] | [39] | [40] | [41] | [42] | [43] | [44] | [45] | [46] | [47] | [48] | [49] | [50] | [51] | [52] | [53] | [54] | [55] | [56] | [57] | [58]
